Results as given in PubChem BioAssay AID1259407 (Chemical Carcinogenesis Research Information System (CCRIS), 2018).
Activity calls are given as the source filed them. How the calls were made is not given here.

System: CCRIS mutagenicity, Ames/micronucleus/aberration tests
Test: CCRIS mutagenicity studies
[1] = Test System: AMES SALMONELLA TYPHIMURIUM, Strain/Indicator: TA98, Metabolic Activation: NONE, Method: STANDARD PLATE
[2] = Test System: AMES SALMONELLA TYPHIMURIUM, Strain/Indicator: TA98, Metabolic Activation: RAT, LIVER, S-9, AROCLOR 1254, Method: STANDARD PLATE
[3] = Test System: AMES SALMONELLA TYPHIMURIUM, Strain/Indicator: TA100, Metabolic Activation: NONE, Method: STANDARD PLATE
[4] = Test System: AMES SALMONELLA TYPHIMURIUM, Strain/Indicator: TA98, Metabolic Activation: NONE, Method: PREINCUBATION
[5] = Test System: AMES SALMONELLA TYPHIMURIUM, Strain/Indicator: TA100, Metabolic Activation: NONE, Method: PREINCUBATION
[6] = Test System: AMES SALMONELLA TYPHIMURIUM, Strain/Indicator: TA98(1,8-DNP6), Metabolic Activation: NONE, Method: STANDARD PLATE
[7] = Test System: AMES SALMONELLA TYPHIMURIUM, Strain/Indicator: TA98(NR), Metabolic Activation: NONE, Method: STANDARD PLATE

## C=C(C)C(=O)OCCOCCOC(=O)C(=C)C
[1]
  mutagenic call: inactive; negative
[2]
  mutagenic call: inactive; negative
Test System: AMES SALMONELLA TYPHIMURIUM, Strain/Indicator: TA98, Metabolic Activation: RAT, LIVER, S-9, SODIUM PHENOBARBITAL, Method: STANDARD PLATE
  mutagenic call: inactive; negative
[3]
  mutagenic call: inactive; negative
Test System: AMES SALMONELLA TYPHIMURIUM, Strain/Indicator: TA100, Metabolic Activation: RAT, LIVER, S-9, AROCLOR 1254, Method: STANDARD PLATE
  mutagenic call: inactive; negative
Test System: AMES SALMONELLA TYPHIMURIUM, Strain/Indicator: TA100, Metabolic Activation: RAT, LIVER, S-9, SODIUM PHENOBARBITAL, Method: STANDARD PLATE
  mutagenic call: inactive; negative
Test System: AMES SALMONELLA TYPHIMURIUM, Strain/Indicator: TA1535, Metabolic Activation: NONE, Method: STANDARD PLATE
  mutagenic call: inactive; negative
Test System: AMES SALMONELLA TYPHIMURIUM, Strain/Indicator: TA1535, Metabolic Activation: RAT, LIVER, S-9, AROCLOR 1254, Method: STANDARD PLATE
  mutagenic call: inactive; negative
Test System: AMES SALMONELLA TYPHIMURIUM, Strain/Indicator: TA1535, Metabolic Activation: RAT, LIVER, S-9, SODIUM PHENOBARBITAL, Method: STANDARD PLATE
  mutagenic call: inactive; negative
Test System: AMES SALMONELLA TYPHIMURIUM, Strain/Indicator: TA1537, Metabolic Activation: NONE, Method: STANDARD PLATE
  mutagenic call: inactive; negative
Test System: AMES SALMONELLA TYPHIMURIUM, Strain/Indicator: TA1537, Metabolic Activation: RAT, LIVER, S-9, AROCLOR 1254, Method: STANDARD PLATE
  mutagenic call: inactive; negative
Test System: AMES SALMONELLA TYPHIMURIUM, Strain/Indicator: TA1537, Metabolic Activation: RAT, LIVER, S-9, SODIUM PHENOBARBITAL, Method: STANDARD PLATE
  mutagenic call: inactive; negative
Test System: AMES SALMONELLA TYPHIMURIUM, Strain/Indicator: TA1538, Metabolic Activation: NONE, Method: STANDARD PLATE
  mutagenic call: inactive; negative
Test System: AMES SALMONELLA TYPHIMURIUM, Strain/Indicator: TA1538, Metabolic Activation: RAT, LIVER, S-9, AROCLOR 1254, Method: STANDARD PLATE
  mutagenic call: inactive; negative
Test System: AMES SALMONELLA TYPHIMURIUM, Strain/Indicator: TA1538, Metabolic Activation: RAT, LIVER, S-9, SODIUM PHENOBARBITAL, Method: STANDARD PLATE
  mutagenic call: inactive; negative

## CN1C(=O)CC[C@H]1c1cccnc1
[4]
  mutagenic call: inactive; negative
Test System: AMES SALMONELLA TYPHIMURIUM, Strain/Indicator: TA98, Metabolic Activation: RAT, LIVER, S-9, AROCLOR 1254 (5%), Method: PREINCUBATION
  mutagenic call: inactive; negative
[5]
  mutagenic call: inactive; negative
Test System: AMES SALMONELLA TYPHIMURIUM, Strain/Indicator: TA100, Metabolic Activation: RAT, LIVER, S-9, AROCLOR 1254 (5%), Method: PREINCUBATION
  mutagenic call: inactive; negative
Test System: AMES SALMONELLA TYPHIMURIUM, Strain/Indicator: TA1535, Metabolic Activation: NONE, Method: PREINCUBATION
  mutagenic call: inactive; negative
Test System: AMES SALMONELLA TYPHIMURIUM, Strain/Indicator: TA1535, Metabolic Activation: RAT, LIVER, S-9, AROCLOR 1254 (5%), Method: PREINCUBATION
  mutagenic call: inactive; negative
Test System: AMES SALMONELLA TYPHIMURIUM, Strain/Indicator: TA1537, Metabolic Activation: NONE, Method: PREINCUBATION
  mutagenic call: inactive; negative
Test System: AMES SALMONELLA TYPHIMURIUM, Strain/Indicator: TA1537, Metabolic Activation: RAT, LIVER, S-9, AROCLOR 1254 (5%), Method: PREINCUBATION
  mutagenic call: inactive; negative
Test System: AMES SALMONELLA TYPHIMURIUM, Strain/Indicator: TA1538, Metabolic Activation: NONE, Method: PREINCUBATION
  mutagenic call: inactive; negative
Test System: AMES SALMONELLA TYPHIMURIUM, Strain/Indicator: TA1538, Metabolic Activation: RAT, LIVER, S-9, AROCLOR 1254 (5%), Method: PREINCUBATION
  mutagenic call: inactive; negative

## O=[N+]([O-])c1ccc2c3c(cccc13)-c1cc(O)ccc1-2
[6]
  mutagenic call: inactive; negative
[7]
  mutagenic call: active; positive
[1]
  mutagenic call: active; positive
[2]
  mutagenic call: active; positive
Test System: AMES SALMONELLA TYPHIMURIUM, Strain/Indicator: TA100(NR), Metabolic Activation: NONE, Method: STANDARD PLATE
  mutagenic call: inactive; negative
Test System: AMES SALMONELLA TYPHIMURIUM, Strain/Indicator: TA100(TN5-1,8-DNP1012), Metabolic Activation: NONE, Method: STANDARD PLATE
  mutagenic call: inactive; negative
[3]
  mutagenic call: active; positive

## O=C1OCCN1N=Cc1ccc([N+](=O)[O-])o1
End Point: In vivo micronucleus, Test System: Bone marrow polychromatic erythrocytes, Species: Rat, Strain/Sex: Sprague-Dawley/Female, Route: Oral
  mutagenic call: inactive; positive (p</=0.05 for mononuclei; p</=0.01 for binuclei for furazolidone alone;
[6]
  mutagenic call: active; positive
Test System: AMES SALMONELLA TYPHIMURIUM, Strain/Indicator: TA98(1,8-DNP6), Metabolic Activation: RAT, LIVER, S-9, 3-METHYLCHOLANTHRENE, Method: STANDARD PLATE
  mutagenic call: active; positive
[7]
  mutagenic call: active; positive
Test System: AMES SALMONELLA TYPHIMURIUM, Strain/Indicator: TA98(NR), Metabolic Activation: RAT, LIVER, S-9, 3-METHYLCHOLANTHRENE, Method: STANDARD PLATE
  mutagenic call: active; positive
Test System: AMES SALMONELLA TYPHIMURIUM, Strain/Indicator: TA98, Metabolic Activation: NONE
  mutagenic call: active; positive
[1]
  mutagenic call: active; positive
Test System: AMES SALMONELLA TYPHIMURIUM, Strain/Indicator: TA98, Metabolic Activation: RAT, LIVER, S-9, 3-METHYLCHOLANTHRENE, Method: STANDARD PLATE
  mutagenic call: active; positive
Test System: AMES SALMONELLA TYPHIMURIUM, Strain/Indicator: TA98, Metabolic Activation: S-9
  mutagenic call: active; positive
Test System: AMES SALMONELLA TYPHIMURIUM, Strain/Indicator: TA100, Metabolic Activation: NONE
  mutagenic call: active; positive
Test System: AMES SALMONELLA TYPHIMURIUM, Strain/Indicator: TA100, Metabolic Activation: S-9
  mutagenic call: active; positive
Test System: CHINESE HAMSTER OVARY, Strain/Indicator: CHO-AS52, Metabolic Activation: NONE
  mutagenic call: inactive; negative
Test System: CHINESE HAMSTER OVARY, Strain/Indicator: CHO-AS52, Metabolic Activation: RAT, LIVER, S-9, 3-METHYLCHOLANTHRENE
  mutagenic call: inactive; negative
Test System: CHINESE HAMSTER OVARY, Strain/Indicator: CHO-K1-BH4, Metabolic Activation: NONE
  mutagenic call: active; positive
Test System: CHINESE HAMSTER OVARY, Strain/Indicator: CHO-K1-BH4, Metabolic Activation: RAT, LIVER, S-9, 3-METHYLCHOLANTHRENE
  mutagenic call: active; positive
Test System: CHINESE HAMSTER OVARY, Strain/Indicator: CHO-UV5, Metabolic Activation: NONE
  mutagenic call: active; positive
Test System: CHINESE HAMSTER OVARY, Strain/Indicator: CHO-UV5, Metabolic Activation: RAT, LIVER, S-9, 3-METHYLCHOLANTHRENE
  mutagenic call: active; positive
Test System: E. COLI, Strain/Indicator: TC3960, Metabolic Activation: NONE, Method: PREINCUBATION
  mutagenic call: active; positive
Test System: E. COLI, Strain/Indicator: WP2, Metabolic Activation: NONE, Method: SPOT
  mutagenic call: active; positive
Test System: E. COLI, Strain/Indicator: WP2 UVRA, Metabolic Activation: NONE, Method: SPOT
  mutagenic call: active; positive

## Nc1ccc(Oc2ccccc2)cc1
[4]
  mutagenic call: inactive; negative
Test System: AMES SALMONELLA TYPHIMURIUM, Strain/Indicator: TA98, Metabolic Activation: RAT, BLADDER, S-9, PCB, Method: FLUCTUATION TEST
  mutagenic call: active; positive
Test System: AMES SALMONELLA TYPHIMURIUM, Strain/Indicator: TA98, Metabolic Activation: RAT, LIVER, S-9, PCB, Method: PREINCUBATION
  mutagenic call: active; positive
Test System: AMES SALMONELLA TYPHIMURIUM, Strain/Indicator: TA100, Metabolic Activation: GUINEA PIG, LIVER, S-9, KANECLOR 500, Method: STANDARD PLATE
  mutagenic call: active; positive
[5]
  mutagenic call: inactive; negative
Test System: AMES SALMONELLA TYPHIMURIUM, Strain/Indicator: TA100, Metabolic Activation: RAT, BLADDER, S-9, PCB, Method: FLUCTUATION TEST
  mutagenic call: active; positive
Test System: AMES SALMONELLA TYPHIMURIUM, Strain/Indicator: TA100, Metabolic Activation: RAT, LIVER, S-9, PCB, Method: PREINCUBATION
  mutagenic call: active; positive

## ClCC(Br)CCl
Test System: AMES SALMONELLA TYPHIMURIUM, Strain/Indicator: TA100, Metabolic Activation: RAT, LIVER, MICROSOMES, PHENOBARBITAL, NADPH COFACTORS, Method: STANDARD PLATE
  mutagenic call: active; positive
Test System: AMES SALMONELLA TYPHIMURIUM, Strain/Indicator: TA100, Metabolic Activation: RAT, LIVER, MICROSOMES, PHENOBARBITAL, Method: STANDARD PLATE
  mutagenic call: inactive; negative
